We go through one cell line from the supplement of paper PMC10307832.

What all share (assay): relative viability (nuclei count vs DMSO), 5 days (fraction); higher = more cells survive
Compound in the assay “Fedratinib + OSI-027”: Cc1cnc(Nc2ccc(OCCN3CCCC3)cc2)nc1Nc1cccc(S(=O)(=O)NC(C)(C)C)c1 [Fedratinib] + COc1cccc2cc(-c3nc([C@H]4CC[C@H](C(=O)O)CC4)n4ncnc(N)c34)[nH]c12 [OSI-027] (partner 0.5 µM)
The essentials:
(§1)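 Relative viability was taken as the ratio of nuclei in treated wells to nuclei in vehicle wells. Lung cancer cell lines in 1536-well plates received compounds by pin tool one day after seeding, either one drug alone or a fixed anchor-drug dose plus five library-drug doses (not always all listed) in √10 steps. Nuclei were counted on 4× images after 5 days of treatment, and values are medians of duplicate plates.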

Compound in the assay “Fedratinib + Decitabine”: Cc1cnc(Nc2ccc(OCCN3CCCC3)cc2)nc1Nc1cccc(S(=O)(=O)NC(C)(C)C)c1 [Fedratinib] + Nc1ncn([C@H]2C[C@H](O)[C@@H](CO)O2)c(=O)n1 [Decitabine] (partner 2 µM)
The method, boiled down:
as §1

Compound in the assay “GW-2580 + Bortezomib”: COC1=CC=C(C=C1)COC2=C(C=C(C=C2)CC3=CN=C(N=C3N)N)OC [GW-2580] + CC(C)C[C@H](NC(=O)[C@H](Cc1ccccc1)NC(=O)c1cnccn1)B(O)O [Bortezomib] (partner 0.002 µM)
The essentials: as §1

Compound in the assay “Fedratinib + Foretinib”: Cc1cnc(Nc2ccc(OCCN3CCCC3)cc2)nc1Nc1cccc(S(=O)(=O)NC(C)(C)C)c1 [Fedratinib] + COc1cc2c(Oc3ccc(NC(=O)C4(C(=O)Nc5ccc(F)cc5)CC4)cc3F)ccnc2cc1OCCCN1CCOCC1 [Foretinib] (partner 0.25 µM)
The method, boiled down: as §1

Compound in the assay “GW-2580 + Vorinostat”: COC1=CC=C(C=C1)COC2=C(C=C(C=C2)CC3=CN=C(N=C3N)N)OC [GW-2580] + O=C(CCCCCCC(=O)Nc1ccccc1)NO [Vorinostat] (partner 1 µM)
The essentials:
as §1

Take UMC-11: the relative viability with Fedratinib + OSI-027 (first compound 0.1 µM) stood at 0.473; with Fedratinib + OSI-027 (first compound 0.3162 µM), 0.452; with Fedratinib + OSI-027 (first compound 1 µM), 0.373; in the assay with Fedratinib + Decitabine (first compound 0.1 µM), 0.61; with Fedratinib + Decitabine (first compound 0.3162 µM) it was 0.603; with Fedratinib + Decitabine (first compound 1 µM), 0.551. Moreover, the relative viability turned out to be 0.793 with GW-2580 + Bortezomib (first compound 0.08 µM); 0.758 with GW-2580 + Bortezomib (first compound 0.8 µM); 0.788 with GW-2580 + Bortezomib (first compound 2.53 µM); 0.603 with GW-2580 + Bortezomib (first compound 8 µM); 1.1 with Fedratinib + Foretinib (first compound 0.1 µM); 0.958 in the assay with Fedratinib + Foretinib (first compound 0.3162 µM). The relative viability is 0.706 in the assay with Fedratinib + Foretinib (first compound 1 µM); 0.384 with GW-2580 + Vorinostat (first compound 0.08 µM); 0.391 in the assay with GW-2580 + Vorinostat (first compound 0.8 µM); 0.513 in the assay with GW-2580 + Vorinostat (first compound 2.53 µM); 0.413 with GW-2580 + Vorinostat (first compound 8 µM).
